The values that follow come from patent publication US20240385182A1, “MASKED FLUOROGENIC LIPID COMPOUNDS, LIPID PARTICLES COMPRISING THE SAME, AND METHODS OF USE THEREOF” (Rutgers, The State University of New Jersey, priority 2023, published 2024).

For orientation: IC50 means the concentration that inhibits the measured activity by half.

For one test, the system named is HeLa and RAW 264.7 cells. As to the kind of experiment: MTT cell viability assay. It is filed as cell-based. The following applies: 8-250 μM, 24-hour period. As to the method: With a feasible liposome preparation and treatment protocol established for live cell imaging, attention was turned to assessing the cytocompatibility of the LNPs, with or without DPPC-TC-ONOO^−, DPPC-TC, and the oxa-spiro[4,5] decenone 6a. A standard 3-(4,5-dimethylthiazol-2-yl)-2,5-diphenyl tetrazolium bromide (MTT) cell viability assay in HeLa and RAW 264.7 cells treated with these molecules (8-250 μM) over a 24-hour period. The dose-response curves provided high IC50 values for each compound: DPPC-TC-ONOO− (≥100 μM), DPPC-TC (≥50 μM), and 6 (≥70 μM).

A further test has as its system RAW-264.7 cells. As to the kind of experiment: Confocal imaging and colocalization in live RAW-264.7 cells. Type of test: cell-based, murine. As to the method: FIGS. 10A-10E: confocal imaging of lipid environments targeted by ONOO^− in live RAW246.7 cells. Cells were seeded into glass microscope dishes, incubated with LNPs (50 μM) and stained with organelle trackers and/or actin dye prior to imaging. LNPs obtained from a 47.5:47.5:5.0 molar ratio of DOTMA, DOPE, and DPPC-TC-ONOO^−. FIG. 10A: cells treated with LNPs, stimulated with LPS. Time coarse images acquired after addition of LPS. FIG. 10B: cells treated with LNPs and 1400 W. FIG. 10C: cells treated with LNPs, then with 1400 W and LPS. FIGS. 10D-10E: quantitative colocalization study of cells treated with LNPs and stimulated with LPS. Pearson's correlation coefficient (PCC) was calculated for quantitative assessment of colocalization using organelle trackers as described above. Scale bars=20 μm (FIGS. 10A-10D) or 5 μm (FIG. 10E). With the utility of DPPC-TC-ONOO^− proven in synthetic protocell membranes, incorporation into live HeLa and RAW 264.7 cells was sought, which are relevant to redox-induced stress and have well-recognized pathways for RNS and ROS production. Lipid nanoparticles (LNPs) (˜100 nm in diameter) was used to deliver DPPC-TC-ONOO− into cells. This method circumvented the limited solubility of DPPC-TC-ONOO− due to the relatively hydrophobic butanone-coumarin motif. LNPs were obtained via sonication from 1,2-di-O-octadecenyl-3-trimethylammonium propane (DOTMA), 1,2-dioleoyl-sn-glycero-3-phosphoethanolamine (DOPE), and DPPC-TC-ONOO− (47.5:47.5:5.0 molar ratio), which were hydrated with a 300 mM sucrose solution. DOTMA and DOPE were chosen as the carrier lipids due to their cationic/zwitterionic natures, which has been postulated to enhance uptake through the cell membrane. The impact of different LNP compositions and incubation times on the cellular incorporation of DPPC-TC-ONOO^− was assessed. […] Specifically, LNPs containing greater than 10 mol % DPPC-TC-ONOO− were considerably more heterogenous in size (up to […] observed, in contrast to ˜100 nm) and nonuniform in vesicle lamellarity. Those with less than 4 mol % DPPC-TC-ONOO− led to insufficient fluorescence signal. To balance these counteracting factors, 5 mol % DPPC-TC-ONOO− was used, with 47.5 mol % DOTMA and DOPE, each. In these initial assays, cells were incubated with LNPs for up to 15 hours to complete the uptake and intracellular localization of DPPC-TC-ONOO−. Shorter incubation times (3-to-5 hours) led to its uptake but not subcellular localization. […] However, high serum concentration in DMEM caused interference between LNPs and serum-protein, resulting in aggregate formation as observed by microscopy. To overcome this obstacle, LNPs (50 μM) were used in a mixture of 2/3 volumetric ratio of sucrose solution and Opti-MEM™, a reduced serum medium known to increase the efficiency of lipofection. The investigations were expanded to include murine-derived macrophage model, RAW-264.7 (FIGS. 10A-10E). RNS play important roles in macrophage activation and differentiation as part of the inflammatory response. Treatment of RAW-264.7 cells with LPS leads to the expression of iNOS, which produces NO·, which then reacts with O2·^−, generating ONOO−. RAW-264.7 cells were treated with LNPs containing either DPPC-TC (positive control) or DPPC-TC-ONOO^− (FIGS. 10A-10E). […] Assessment of DPPC-TC-ONOO^− localization in RAW-264.7 cells was carried out using the ER, Golgi, mitochondrion, and lysosome trackers (FIGS. 10D-10E).

Test [1] concerns CD11b^+ macrophage population from BAL cells. As to the kind of experiment: Murine model of ITB-induced ALI: DPPC-TC fluorescence in BAL cells by flow cytometry. Type of test: in vivo, mice. To be noted: 0.5 mM LNPs (5 mol % probe) on day 3, BAL 3 hour-post instillation, n = 3. The source says:
FIGS. 11A-11B: flow cytometry analysis of myeloid-derived BAL cells for migratory phenotype and DPPC-TC-ONOO^− probe activity in murine model of ALI. FIG. 11A: conceptual illustration of ITB-induced ALI and LNP instillation. FIG. 11B: classification of myeloid-derived BAL cells by migratory phenotype (CD11b+) and DPPC-TC fluorescence. Quadrant plots are shown for individual mice, which were used to quantify DPPC-TC as a measure of peroxynitrite generation. After successfully imaging the iNOS dependent peroxynitrite activity in both HeLa and RAW264.7, the potential of DPPC-TC-ONOO^− for detecting peroxynitrite generated in lung tissue injury using a pre-established murine model of ALI was explored (FIGS. 11A-11B). During ALI, release of cytokines and chemokines, such as tumor necrosis factor-alpha (TNF-α) and interleukin-1 beta ([…]), recruit macrophages and other immune cells to the site of injury. During the initial phase of injury (d0-d3), pro-inflammatory macrophages are dominant, which is associated with higher levels of iNOS expression. Herein, a previously reported ITB method was employed, which causes a severe inflammatory response characterized by infiltration of immune cells, which is dependent upon iNOS activation. For a generalizable and biocompatible instillation protocol, LNP concentrations ranging from 0.5 to 2.0 mM were evaluated. LNPs carrying DPPC-TC (5 mol % of the lipid content) were employed in C57BL6/J mice and the viability of the cells from BAL was analyzed via flow cytometry. Results indicated 94% viability at 0.5 mM LNP concentration, which was employed for the subsequent experiments. On d0, mice (C57BL6/J or iNOS^−/−) were anesthetized and received an intratracheal instillation of either PBS (control) or bleomycin (FIGS. 11A-11B). To detect the peroxynitrite generation during the early inflammatory response, mice were again anesthetized and instilled with 0.5 mM LNPs containing DPPC-TC-ONOO^− (5 mol % of the lipid content) on day 3. […] The migratory population was further analyzed for DPPC-TC signal quantification (Table 4).
For orientation: In flow cytometry, cells or beads pass a laser one at a time.

`CCCCCCCCCCCCCCCC(=O)OCC(COP(=O)([O-])OCC[N+](C)(C)Cc1cn(-c2cc3ccc(OC(=O)Oc4ccc(CCC(=O)C(F)(F)F)cc4)cc3oc2=O)nn1)OC(=O)CCCCCCCCCCCCCCC` (racemic) [DPPC-TC-ONOO^−] registered an IC50 in the test with HeLa and RAW 264.7 cells not below 100 µM. Also, in the test with RAW-264.7 cells (RAW-264.7, 1400 W only or 1400 W and LPS), the “signal in the DPPC-TC channel” value is “little-to-no signal”. The PCC in the test on RAW-264.7 cells (RAW-264.7, ER tracker) is 0.946; with RAW-264.7 cells (RAW-264.7, Golgi tracker), 0.729. The fluorescence intensity entry in the test with RAW-264.7 cells (RAW-264.7, LNPs, stimulation with LPS over 16 hours) is reported as “substantial increase in fluorescence intensity”. Besides, the “signal at 405/475 nm” value with RAW-264.7 cells (RAW-264.7, LNPs, unstimulated) is “negligible levels of signal”. The “DPPC-TC p:n ratio” value in test [1] (WT-ITB) turned out to be 0.72 ± 0.008; in test [1] (WT-PBS), 0.55 ± 0.021; in test [1] (iNOS^−/−-ITB), 0.56 ± 0.018.
